Key:
seizures [1] = settings: rabbit, in vivo; cited from earlier work
[2] = test system: epilepsy associated with GRIN2A mutation; experiment: Expanded access compassionate use case study of a child with GRIN2A mutation refractory epilepsy; assay type: in vivo, human
Experimental: Example 1 describes a case study of a child with a GRIN2A mutation that was provided highly purified cannabidiol as part of an expanded access treatment program of children with refractory epilepsy.
A child was enrolled in an expanded access compassionate use program for CBD. This subject was treated with a highly purified extract of cannabidiol (CBD) obtained from a cannabis plant. Frequency of seizures was recorded at each visit, as were reported quality of life changes, including mood, behaviour, and cognitive function.
The patient first presented with seizures. They experienced status epilepticus with myoclonic jerks and atypical absence seizures which lasted between 30 seconds to 15 minutes.
The patient had tried and failed 10 different anti-epileptic drugs, the ketogenic diet, vitamin B6 and vagus nerve stimulation however their seizures remained refractory.
Treatment with a highly purified CBD extract (greater than 98% CBD w/w) in sesame oil, of known and constant composition, at a dose of 5 mg/kg/day in addition to their baseline anti-epileptic drug (AED) regimen was commenced in September 2014 and has been ongoing for four years.
Laboratory testing for hematologic, liver, kidney function and concomitant AED levels was performed at baseline, and after every 4 weeks of CBD therapy.

[3] = Solubility of the drug substance in water; assay type: physicochemical
Text: The drug substance, CBD is insoluble in water. Sesame oil was selected as an excipient to solubilize the drug substance.

[4] = test system: seizures after administration of pro-convulsant drugs or an electric current; settings: mice; cited from earlier work
[5] = test system: secondary generalized epilepsy; settings: of eight adult patients; cited from earlier work
seizures [6] = settings: of four adult patients; 200 mg/day; cited from earlier work
seizures [7] = settings: twelve institutionalized adult patients; 200 mg/day; cited from earlier work
Dravet syndrome = settings: Phase 3, Dravet syndrome; cited from earlier work

Structure (SMILES) | Convulsant liability (seizures [1]) | Concomitant anti-epileptic drugs after treatment ([2]; after CBD treatment) | Cognitive function ([2]; after CBD treatment, patient now attends regular school and sports activities) | Seizure status since the start of treatment ([2]; one patient, CBD 5 up to 25 mg/kg/day added to baseline AEDs, four years of treatment) | EEG: posterior dominate rhythm, alpha activity ([2]; repeat EEG after treatment with CBD (FIG. 2)) [Hz] | EEG: epileptiform discharges ([2]; repeat EEG after treatment with CBD (FIG. 2), left frontal head region) | EEG: electrical status epilepticus during sleep ([2]; repeat EEG after treatment with CBD (FIG. 2), present at baseline) | Solubility in water [3] | Prevention of seizures [4] | Number of patients with marked reduction of seizures [5] | Number of patients who became seizure free (seizures [6]) | Control of seizures (seizures [7]) | Study outcome (Dravet syndrome)
CCCCCc1cc(O)c2c(c1)OC(C)(C)[C@@H]1CCC(C)=C[C@@H]21 [THC, Tetrahydrocannabinol] | pro-convulsant |  |  |  |  |  |  |  |  |  |  |  | 
C=C(C)[C@@H]1CCC(C)=C[C@H]1c1c(O)cc(CCCCC)cc1O [CBD, Cannabidiol] |  | All AEDs have been stopped with the exception of clobazam and the VNS | significantly improved | seizure free | 9 | rare | no electrical status epilepticus during sleep | insoluble | able to prevent seizures | 4 | two | ineffective | positive results
